Measured values reported in ChEMBL document CHEMBL1201862, “PubChem BioAssay data set” (2004).
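Results reflect a 48-hour exposure of cells in 96-well plates to compound at five concentrations. Abbreviation: GI50, concentration required for 50% inhibition of growth.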 Calls of active or inactive are those of the source. Cut-off read from the data, not from the text of the source: active = GI50 up to about 1.1 µM and inactive = higher. Starred links: 1 amine or outer side, 2 acyl side, 3 side chain; linkers in the order of their positions; H or OH if unused. Non-standard residues stand in square brackets, D forms with d. Residues, ends and D or L forms follow the SMILES beside them. X4 = C[C@H](N[*:1])C(=O)C(C)(C)C(=O)[*:2]; Hmpa(2S,3S) = CC[C@H](C)[C@H](O)C(=O)O; NMeY = CN[C@@H](Cc1ccc(O)cc1)C(=O)O; NMeL = CN[C@@H](CC(C)C)C(=O)O; NMeV = CN[C@H](C(=O)O)C(C)C; βAla = NCCC(=O)O

Columns and labels:
Assay in all cases: inhibition of tumour cell growth, NCI panel, 48 h
HT-29 = test system: HT-29
DU-145 = test system: DU-145
OVCAR-8 = test system: OVCAR-8
OVCAR-3 = test system: OVCAR-3
CAKI-1 = test system: CAKI-1
COLO 205 = test system: COLO 205
LOX IMVI = test system: LOX IMVI
NCI/ADR-RES = test system: NCI/ADR-RES
SR = test system: SR
RXF 393 = test system: RXF 393
HL-60 = test system: HL-60
U-251 = test system: U-251
MDA-MB-231 = test system: MDA-MB-231
M14 = test system: M14
KM12 = test system: KM12
HOP-62 = test system: HOP-62
SW-620 = test system: SW-620
RPMI-8226 = test system: RPMI-8226
OVCAR-5 = test system: OVCAR-5

Measured: GI50

COc1cc2ccc1OCc1cccc(n1)COc1ccc(cc1OC)/C=N\c1ccc(cc1)-c1ccc(cc1)/N=C\2
inactive: HT-29 > 100 µM | DU-145 > 100 µM | OVCAR-8 > 100 µM | OVCAR-3 > 100 µM | CAKI-1 > 100 µM | COLO 205 > 100 µM | LOX IMVI > 100 µM | NCI/ADR-RES > 100 µM | SR > 100 µM | RXF 393 71.6 µM | HL-60 > 100 µM | U-251 > 100 µM | MDA-MB-231 > 100 µM | M14 > 100 µM | KM12 > 100 µM | HOP-62 78 µM | SW-620 > 100 µM

Cc1cccc(N2CCN(S(=O)(=O)c3ccc(Cl)cc3)C2=N)c1C
inactive: HT-29 > 100 µM | DU-145 93.3 µM | OVCAR-8 93.8 µM | RPMI-8226 > 100 µM | CAKI-1 > 100 µM | COLO 205 > 100 µM | NCI/ADR-RES > 100 µM | SR 18.1 µM | OVCAR-5 > 100 µM | RXF 393 > 100 µM | U-251 > 100 µM | MDA-MB-231 > 100 µM | M14 > 100 µM | KM12 > 100 µM | SW-620 > 100 µM

COC(=O)c1cc2c(c3c1CC(Cc1ccccc1)C3=O)CCC2 (stereo not given)
inactive: HT-29 74.1 µM | DU-145 61.4 µM | OVCAR-8 95.3 µM | OVCAR-3 > 100 µM | RPMI-8226 59.8 µM | COLO 205 > 100 µM | LOX IMVI 45.9 µM | NCI/ADR-RES > 100 µM | SR > 100 µM | OVCAR-5 > 100 µM | RXF 393 90.2 µM | HL-60 > 100 µM | U-251 62.8 µM | MDA-MB-231 62.2 µM | M14 93.3 µM | KM12 18.4 µM | HOP-62 99.3 µM | SW-620 > 100 µM

CCc1ccc2oc(-c3cc(O)c(-c4nc5cc(CC)ccc5o4)cc3O)nc2c1
inactive: DU-145 > 100 µM | OVCAR-8 > 100 µM | RPMI-8226 > 100 µM | COLO 205 > 100 µM | LOX IMVI > 100 µM | NCI/ADR-RES > 100 µM | SR > 100 µM | OVCAR-5 > 100 µM | HL-60 > 100 µM | U-251 > 100 µM | MDA-MB-231 > 100 µM | M14 > 100 µM | HOP-62 > 100 µM | SW-620 > 100 µM

CC[C@H](C)[C@@H]1OC(=O)CCNC(=O)[C@@H](C)NC(=O)C(C)(C)C(=O)[C@H](C)NC(=O)[C@H](Cc2ccc(OC)cc2)N(C)C(=O)[C@H](C(C)C)N(C)C(=O)CNC(=O)[C@H](CC(C)C)N(C)C(=O)CNC1=O (cyclo(G[NMeL]G[NMeV][NMeY](Me)[X4][dA][βAla][Hmpa(2S,3S)]))
active: OVCAR-3 0.621 µM | RPMI-8226 0.0726 µM | COLO 205 0.0252 µM | LOX IMVI 0.175 µM | SR 0.337 µM | OVCAR-5 0.724 µM | RXF 393 0.733 µM | U-251 0.0855 µM | MDA-MB-231 0.476 µM | M14 0.885 µM | HOP-62 0.962 µM | SW-620 0.0625 µM
inactive: HT-29 1.84 µM | DU-145 2.71 µM | OVCAR-8 3.58 µM | CAKI-1 1.53 µM | NCI/ADR-RES 26.4 µM

O=c1c2cc(-c3ccccc3)cnc2sn1-c1ccc(Oc2ccccc2)cc1
inactive: HT-29 23.4 µM | DU-145 80.9 µM | OVCAR-8 26.9 µM | OVCAR-3 31.5 µM | RPMI-8226 53.1 µM | CAKI-1 61.9 µM | COLO 205 > 100 µM | NCI/ADR-RES 27 µM | SR > 100 µM | OVCAR-5 65.2 µM | RXF 393 19.1 µM | HL-60 > 100 µM | U-251 23.6 µM | MDA-MB-231 14.5 µM | M14 46.3 µM | KM12 48.5 µM | HOP-62 22.1 µM | SW-620 37.8 µM

CN(C)c1ccc(/C=C/c2nc3ccccc3s2)cc1
inactive: HT-29 > 100 µM | DU-145 > 100 µM | OVCAR-8 > 100 µM | RPMI-8226 > 100 µM | COLO 205 > 100 µM | LOX IMVI > 100 µM | NCI/ADR-RES > 100 µM | SR > 100 µM | OVCAR-5 > 100 µM | RXF 393 > 100 µM | HL-60 6.08 µM | U-251 > 100 µM | MDA-MB-231 > 100 µM | M14 > 100 µM | KM12 > 100 µM | HOP-62 > 100 µM | SW-620 > 100 µM

O=C(O)CSc1cc(-c2ccccc2)nc2ccccc12
inactive: HT-29 36.2 µM | DU-145 34 µM | OVCAR-8 63.2 µM | OVCAR-3 21.7 µM | CAKI-1 67.5 µM | LOX IMVI 46 µM | NCI/ADR-RES 34.2 µM | SR 27.9 µM | OVCAR-5 > 100 µM | RXF 393 27.4 µM | HL-60 22.2 µM | U-251 32.5 µM | MDA-MB-231 98.9 µM | M14 50.2 µM | KM12 30.5 µM | HOP-62 48.2 µM | SW-620 44.3 µM

C[n+]1c2ccccc2c(C(=O)Nc2ccc(S(=O)(=O)Nc3ccnn3-c3ccccc3)cc2)c2ccccc21
inactive: HT-29 > 100 µM | DU-145 > 100 µM | OVCAR-8 > 100 µM | OVCAR-3 > 100 µM | RPMI-8226 > 100 µM | CAKI-1 > 100 µM | COLO 205 > 100 µM | LOX IMVI > 100 µM | NCI/ADR-RES 20.7 µM | SR > 100 µM | OVCAR-5 > 100 µM | U-251 > 100 µM | MDA-MB-231 > 100 µM | M14 > 100 µM | KM12 > 100 µM | HOP-62 > 100 µM | SW-620 > 100 µM

CC(=O)O[C@H]1C(=O)[C@@]2(C)C(C(OC(=O)c3ccccc3)[C@]3(O)CC(OC(=O)C(O)C(NC(=O)c4cccc(Cl)c4)c4ccccc4)C(C)=C1C3(C)C)[C@]1(OC(C)=O)CO[C@@H]1C[C@@H]2O (stereo not given in full)
inactive: CAKI-1 6.64 µM | NCI/ADR-RES 5.28 µM | U-251 1.25 µM | MDA-MB-231 1.73 µM
active: HT-29 0.269 µM | DU-145 0.546 µM | OVCAR-8 0.653 µM | OVCAR-3 0.449 µM | RPMI-8226 0.405 µM | COLO 205 0.385 µM | LOX IMVI 0.841 µM | SR 0.218 µM | OVCAR-5 1.1 µM | HL-60 0.148 µM | M14 0.851 µM | KM12 0.507 µM | HOP-62 0.518 µM | SW-620 0.838 µM

NC(=O)C(=O)C(c1ccccc1)S(=O)(=O)Cc1ccccc1 (stereo not given)
inactive: HT-29 > 100 µM | DU-145 > 100 µM | OVCAR-8 > 100 µM | OVCAR-3 > 100 µM | RPMI-8226 > 100 µM | CAKI-1 > 100 µM | COLO 205 > 100 µM | LOX IMVI > 100 µM | NCI/ADR-RES > 100 µM | SR > 100 µM | OVCAR-5 > 100 µM | RXF 393 > 100 µM | U-251 > 100 µM | MDA-MB-231 > 100 µM | M14 > 100 µM | KM12 > 100 µM | HOP-62 > 100 µM | SW-620 > 100 µM

N#Cc1nnn(C2CCCCC2)c1O
inactive: HT-29 > 100 µM | DU-145 > 100 µM | OVCAR-8 > 100 µM | OVCAR-3 > 100 µM | RPMI-8226 10 µM | CAKI-1 > 100 µM | COLO 205 > 100 µM | LOX IMVI > 100 µM | NCI/ADR-RES > 100 µM | OVCAR-5 > 100 µM | RXF 393 > 100 µM | HL-60 > 100 µM | U-251 > 100 µM | MDA-MB-231 > 100 µM | M14 > 100 µM | KM12 > 100 µM | HOP-62 > 100 µM | SW-620 > 100 µM

O=C(O)c1cnc(-n2[nH]c3c(c2=O)CCCC3)[nH]c1=O
inactive: HT-29 > 100 µM | DU-145 > 100 µM | OVCAR-8 > 100 µM | RPMI-8226 > 100 µM | CAKI-1 > 100 µM | COLO 205 > 100 µM | NCI/ADR-RES > 100 µM | SR > 100 µM | OVCAR-5 > 100 µM | HL-60 > 100 µM | U-251 > 100 µM | MDA-MB-231 > 100 µM | M14 > 100 µM | KM12 > 100 µM | SW-620 > 100 µM

Cc1c(C#N)c(=N)oc2ccccc12
inactive: HT-29 > 100 µM | DU-145 > 100 µM | OVCAR-8 > 100 µM | OVCAR-3 > 100 µM | RPMI-8226 > 100 µM | CAKI-1 > 100 µM | COLO 205 > 100 µM | LOX IMVI > 100 µM | NCI/ADR-RES > 100 µM | OVCAR-5 > 100 µM | RXF 393 > 100 µM | HL-60 > 100 µM | U-251 > 100 µM | MDA-MB-231 > 100 µM | M14 > 100 µM | KM12 > 100 µM | HOP-62 88.9 µM | SW-620 > 100 µM

CC(=O)C1C(=O)C(C(C)=O)C2C3C=CC(C3)C12 (stereo not given)
inactive: HT-29 > 100 µM | DU-145 > 100 µM | OVCAR-8 > 100 µM | OVCAR-3 > 100 µM | RPMI-8226 > 100 µM | CAKI-1 > 100 µM | COLO 205 > 100 µM | LOX IMVI > 100 µM | NCI/ADR-RES > 100 µM | SR > 100 µM | OVCAR-5 > 100 µM | RXF 393 > 100 µM | HL-60 > 100 µM | U-251 > 100 µM | MDA-MB-231 > 100 µM | KM12 > 100 µM | HOP-62 > 100 µM | SW-620 > 100 µM
